Source: US5705499A, “8-arylalkyl- and 8-arylheteroalkyl-5,11-dihydro-6H-dipyrido[3,2-B:2',3'-e][1]diazepines and their use in the treatment of HIV-1 infection” (Boehringer Ingelheim Pharmaceuticals, Inc., priority 1996, dated 1998)

What follows are compounds tested on C8166-45 cell line (assay: MTT Assay (cytotoxicity)). Settings: C8166-45 cells, five days.
Format: cell-based, human

SMILES | MTT Assay CC30 [µM]
CCN1c2ncc(COc3ccc(O)cc3)cc2C(=O)N(C)c2ccc(Cl)nc21 [Example 105, 2-chloro-5,11-dihydro-11-ethyl-8-(4-hydroxyphenyloxy)methyl-5-methyl-6H-dipyrido[3,2-b:2',3'-e][1,4]diazepin-6-one] | 40
CCN1c2ncc(COc3ccccc3O)cc2C(=O)N(C)c2ccc(Cl)nc21 [Example 106, 2-chloro-5,11-dihydro-11-ethyl-8-(2-hydroxyphenyloxy)methyl-5-methyl-6H-dipyrido[3,2-b:2',3'-e][1,4]diazepin-6-one] | > 60
CCN1c2ncc(COc3cccnc3)cc2C(=O)N(C)c2ccc(Cl)nc21 [Example 107, 2-chloro-5,11-dihydro-11-ethyl-5-methyl-8-(3-pyridyloxy)methyl-6H-dipyrido[3,2-b:2',3'-e][1,4]diazepin-6-one] | > 256
CCN1c2ncc(COc3cccc(OC)c3)cc2C(=O)N(C)c2ccc(Cl)nc21 [Example 108, 2-chloro-5,11-dihydro-11-ethyl-8-(3-methoxyphenyloxy)methyl-5-methyl-6H-dipyrido[3,2-b:2',3'-e][1,4]diazepin-6-one] | > 120
CCN1c2ncc(COc3ccc(C(=O)OC)cc3)cc2C(=O)N(C)c2ccc(Cl)nc21 [Example 109, 2-chloro-5,11-dihydro-11-ethyl-8-(4-(methoxycarbonyl)phenyloxy)methyl-5-methyl-6H-dipyrido[3,2-b :2',3'-e][1,4]diazepin-6-one] | > 60
CCN1c2ncc(COc3ccccc3C(=O)OC)cc2C(=O)N(C)c2ccc(Cl)nc21 [Example 110, 2-chloro-5,11-dihydro-11-ethyl-8-(2-(methyoxycarbonyl)phenyloxy)methyl-5-methyl-6H-dipyrido[3,2-b:2',3'-e][1,4]diazepin-6-one] | > 250
CCN1c2ncc(COc3cccc(C(=O)OC)c3)cc2C(=O)N(C)c2ccc(Cl)nc21 [Example 111] | > 60
CCN1c2ncc(COc3cccc(C(=O)O)c3)cc2C(=O)N(C)c2ccc(Cl)nc21 [Example 112, 2-chloro-5,11-dihydro-11-ethyl-8-(3-(carboxy)phenyloxy)methyl-5-methyl-6H-dipyrido[3,2-b:2',3'-e][1,4]diazepin-6-one] | 250
CCN1c2ncc(COc3cccc(C(N)=O)c3)cc2C(=O)N(C)c2ccc(Cl)nc21 [Example 113, 8-(3-(aminocarbonyl)phenyloxy)methyl-2-chloro-5,11-dihydro-11-ethyl-5-methyl-6H-dipyrido[3,2-b:2',3'-e][1,4]diazepin-6-one] | 130
CCN1c2ncc(COc3cccc4[nH]ccc34)cc2C(=O)N(C)c2ccc(Cl)nc21 [Example 114, 2-chloro-5,11-dihydro-11-ethyl-8-(4-indolyloxy)methyl-5-methyl-6H-dipyrido[3,2-b:2',3'-e][1,4]diazepin-6-one] | 30
CCN1c2ncc(CN(C)c3ccccc3)cc2C(=O)N(C)c2ccc(Cl)nc21 [Example 116, 2-chloro-5,11-dihydro-11-ethyl-5-methyl-8-(N-methylphenylamino)methyl-6H-dipyrido[3,2-b:2',3'-e][1,4]diazepin-6-one] | > 60
CCN1c2ncc(CS(=O)(=O)c3ccccc3)cc2C(=O)N(C)c2ccc(Cl)nc21 [Example 118, 2-chloro-5,11-dihydro-11-ethyl-5-methyl-8-(phenylsulfonyl)methyl-6H-dipyrido[3,2-b:2',3'e][1,4]diazepin-6-one] | 45
CCN1c2ncc(CSc3ncccn3)cc2C(=O)N(C)c2ccc(Cl)nc21 [Example 121, 2-chloro-5,11-dihydro-11-ethyl-5-methyl-8-(pyrimidinyl-2-thio)methyl-6H-dipyrido[3,2-b:2',3'-e][1,4]diazepin-6-one] | 50
